Assays:
[1] = system: normal PBMC; details: glycyrrhizin alone; cited from earlier work
[2] = system: peripheral blood mononuclear cells (PBMC); test: IFN-γ secretion by PBMC incubated 72 h with Immune+™ with or without PHA, ELISA (Example 2); type: cell-based, human; details: PHA alone, 10 μg/ml
Procedure: (§1) Ten mg of Immune+™ was suspended in 1 ml RPMI-1640 with 10% heat inactivated fetal bovine serum (media). The suspension was shaken vigorously on a vortex mixer. The insoluble components were quickly pelleted and the remaining suspension filtered twice: first through a 0.45 micron syringe filter followed by a 0.2 micron syringe filter. This filtrate was used as our stock (approx. 10 mg/ml) from which dilutions were made for the incubations with PBMC. The stock solution was diluted in media prior to treatment with PBMC.
(§2) Volunteers of various ethnic backgrounds and ranging in age from 18-35 years, participated in this study. […] Viability was determined by trypan blue exclusion and was consistently >96%. […]
(§3) Aliquots of culture supernates were frozen immediately upon harvest and stored at −20° C. until analysis by ELISA. Concentrations of IL-1 β and IFN-γ were determined using the DuoSet® ELISA Development System (R & D Systems, Minneapolis, Minn.) with a detection limit of 3.9 and 15.6 pg/ml respectively.
(§4) The effects of various concentrations of Immune+™ on IL-1β and IFN-γ production in either unstimulated or PHA-stimulated PBMC were analyzed using a one-way ANOVA followed by post-hoc Tukey comparison. […]
(§5) The concentrations of IL-1β and IFN-γ in the supernate were measured by ELISA.

[3] = system: peripheral blood mononuclear cells (PBMC); test: IL-1β secretion by PBMC incubated 72 h with Immune+™ with or without PHA, ELISA (Example 2); type: cell-based, human; details: PHA alone, 10 μg/ml
Procedure: as §1, §2, §3, §4, §5

CC1(C)[C@@H](O[C@H]2O[C@H](C(=O)O)[C@@H](O)[C@H](O)[C@H]2O[C@@H]2O[C@H](C(=O)O)[C@@H](O)[C@H](O)[C@H]2O)CC[C@]2(C)[C@H]3C(=O)C=C4[C@@H]5C[C@@](C)(C(=O)O)CC[C@]5(C)CC[C@@]4(C)[C@]3(C)CC[C@@H]12 [glycyrrhizin, 20β-carboxy-11-oxo-30-norolean-12-en-3 βyl-2-O-β-D-glucopyranuronosyl-α-D-glucopyranosiduronic acid]
IFN-γ production [1]: did not markedly alter

phytohemagglutinin [PHA]
IFN-γ production [2]: resulted in a production of IFN-γ | IL-1β production [3]: no effect
